Measured values from the kinase profiling compilation of Christmann-Franck et al. (2016).

What was measured:
Assay in all cases: KINOMEscan competition binding
Settings in all cases: compound 10.0 µM
[1] = molecular target: ACVRL1 (human) (UniProt P37023)
[2] = molecular target: AKT3 (human) (UniProt Q9Y243)
[3] = molecular target: CDC42BPA (human) (UniProt Q5VT25)
[4] = molecular target: CDK3 (human) (UniProt Q00526)
[5] = molecular target: CHEK2 (human) (UniProt O96017)
[6] = molecular target: CSNK1E (human) (UniProt P49674)
[7] = molecular target: CaMK1 (human) (UniProt Q14012)
[8] = molecular target: DAPK2 (human) (UniProt Q9UIK4)
[9] = molecular target: DAPK3 (human) (UniProt O43293)
[10] = molecular target: DYRK1B (human) (UniProt Q9Y463)
[11] = molecular target: EPHA7 (human) (UniProt Q15375)
[12] = molecular target: FYN (human) (UniProt P06241)
[13] = molecular target: GAK (human) (UniProt O14976)
[14] = molecular target: JAK2 JH1 catalytic (human) (UniProt O60674)
[15] = molecular target: LATS2 (human) (UniProt Q9NRM7)
[16] = molecular target: MAP3K10 (human) (UniProt Q02779)
[17] = molecular target: MAPK3 (human) (UniProt P27361)
[18] = molecular target: MAPKAPK5 (human) (UniProt Q8IW41)
[19] = molecular target: MARK1 (human) (UniProt Q9P0L2)
[20] = molecular target: MELK (human) (UniProt Q14680)
[21] = molecular target: MKNK1 (human) (UniProt Q9BUB5)
[22] = molecular target: MYLK (human) (UniProt Q15746)
[23] = molecular target: MYO3B (human) (UniProt Q8WXR4)
[24] = molecular target: NUAK1 (human) (UniProt O60285)
[25] = molecular target: PAK6 (human) (UniProt Q9NQU5)
[26] = molecular target: PHKG1 (human) (UniProt Q16816)
[27] = molecular target: PIM1 (human) (UniProt P11309)
[28] = molecular target: PRKACB (human) (UniProt P22694)
[29] = molecular target: PRKCE (human) (UniProt Q02156)
[30] = molecular target: PRKX (human) (UniProt P51817)
[31] = molecular target: RIOK1 (human) (UniProt Q9BRS2)
[32] = molecular target: SRC (human) (UniProt P12931)
[33] = molecular target: SRPK3 (human) (UniProt Q9UPE1)
[34] = molecular target: STK24 (human) (UniProt Q9Y6E0)
[35] = molecular target: STK25 (human) (UniProt O00506)
[36] = molecular target: TAOK3 (human) (UniProt Q9H2K8)
[37] = molecular target: TNK1 (human) (UniProt Q13470)
[38] = molecular target: TNNI3K (human) (UniProt Q59H18)
[39] = molecular target: TYK2 JH1 catalytic (human) (UniProt P29597)
[40] = molecular target: ULK1 (human) (UniProt O75385)

Chain of TNNI3K (human) (Q59H18 whole entry, looked up): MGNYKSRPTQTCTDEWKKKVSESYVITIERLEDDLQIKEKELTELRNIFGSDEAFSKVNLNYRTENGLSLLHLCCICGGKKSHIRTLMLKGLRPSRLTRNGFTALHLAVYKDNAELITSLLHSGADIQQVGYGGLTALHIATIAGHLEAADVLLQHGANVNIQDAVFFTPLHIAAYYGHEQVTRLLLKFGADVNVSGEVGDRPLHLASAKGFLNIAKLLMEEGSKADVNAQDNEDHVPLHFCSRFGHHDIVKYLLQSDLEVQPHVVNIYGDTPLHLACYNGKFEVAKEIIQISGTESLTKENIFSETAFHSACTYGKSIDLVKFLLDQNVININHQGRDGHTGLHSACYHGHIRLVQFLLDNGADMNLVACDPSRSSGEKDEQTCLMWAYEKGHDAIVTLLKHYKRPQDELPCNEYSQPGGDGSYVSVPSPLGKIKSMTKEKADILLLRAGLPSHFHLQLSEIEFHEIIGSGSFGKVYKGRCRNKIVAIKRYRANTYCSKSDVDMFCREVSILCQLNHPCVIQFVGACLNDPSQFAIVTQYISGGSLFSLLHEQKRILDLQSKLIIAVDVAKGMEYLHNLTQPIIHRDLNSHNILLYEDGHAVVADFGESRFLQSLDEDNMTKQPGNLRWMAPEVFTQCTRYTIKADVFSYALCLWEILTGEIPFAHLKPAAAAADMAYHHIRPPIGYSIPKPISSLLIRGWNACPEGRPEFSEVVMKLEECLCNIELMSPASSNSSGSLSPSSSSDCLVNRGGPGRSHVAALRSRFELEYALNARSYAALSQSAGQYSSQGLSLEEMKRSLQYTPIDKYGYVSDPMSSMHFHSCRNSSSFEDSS
Chain of TAOK3 (human) (Q9H2K8 whole entry, looked up): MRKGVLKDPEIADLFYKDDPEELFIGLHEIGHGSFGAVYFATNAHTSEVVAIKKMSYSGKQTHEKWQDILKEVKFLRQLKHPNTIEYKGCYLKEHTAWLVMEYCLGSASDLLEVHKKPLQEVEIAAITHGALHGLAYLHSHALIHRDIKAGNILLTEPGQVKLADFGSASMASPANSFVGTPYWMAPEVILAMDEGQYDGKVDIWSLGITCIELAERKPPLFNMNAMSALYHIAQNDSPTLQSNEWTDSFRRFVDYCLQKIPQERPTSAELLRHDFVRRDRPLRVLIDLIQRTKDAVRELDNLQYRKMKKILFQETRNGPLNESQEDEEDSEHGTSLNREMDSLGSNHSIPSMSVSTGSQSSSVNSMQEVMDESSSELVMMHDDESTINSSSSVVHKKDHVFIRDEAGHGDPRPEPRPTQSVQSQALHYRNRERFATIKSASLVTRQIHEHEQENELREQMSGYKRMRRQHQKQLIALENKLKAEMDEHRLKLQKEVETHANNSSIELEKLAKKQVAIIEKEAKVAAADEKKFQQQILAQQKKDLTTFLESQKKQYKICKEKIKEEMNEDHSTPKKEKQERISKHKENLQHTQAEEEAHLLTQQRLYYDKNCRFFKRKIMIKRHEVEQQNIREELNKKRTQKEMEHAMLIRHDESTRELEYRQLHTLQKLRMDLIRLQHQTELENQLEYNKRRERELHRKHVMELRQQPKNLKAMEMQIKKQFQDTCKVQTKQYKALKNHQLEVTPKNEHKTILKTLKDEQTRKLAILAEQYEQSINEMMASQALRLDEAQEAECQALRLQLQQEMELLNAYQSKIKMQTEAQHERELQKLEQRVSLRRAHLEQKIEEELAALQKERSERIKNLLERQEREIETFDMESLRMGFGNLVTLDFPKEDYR
Chain of NUAK1 (human) (O60285 whole entry, looked up): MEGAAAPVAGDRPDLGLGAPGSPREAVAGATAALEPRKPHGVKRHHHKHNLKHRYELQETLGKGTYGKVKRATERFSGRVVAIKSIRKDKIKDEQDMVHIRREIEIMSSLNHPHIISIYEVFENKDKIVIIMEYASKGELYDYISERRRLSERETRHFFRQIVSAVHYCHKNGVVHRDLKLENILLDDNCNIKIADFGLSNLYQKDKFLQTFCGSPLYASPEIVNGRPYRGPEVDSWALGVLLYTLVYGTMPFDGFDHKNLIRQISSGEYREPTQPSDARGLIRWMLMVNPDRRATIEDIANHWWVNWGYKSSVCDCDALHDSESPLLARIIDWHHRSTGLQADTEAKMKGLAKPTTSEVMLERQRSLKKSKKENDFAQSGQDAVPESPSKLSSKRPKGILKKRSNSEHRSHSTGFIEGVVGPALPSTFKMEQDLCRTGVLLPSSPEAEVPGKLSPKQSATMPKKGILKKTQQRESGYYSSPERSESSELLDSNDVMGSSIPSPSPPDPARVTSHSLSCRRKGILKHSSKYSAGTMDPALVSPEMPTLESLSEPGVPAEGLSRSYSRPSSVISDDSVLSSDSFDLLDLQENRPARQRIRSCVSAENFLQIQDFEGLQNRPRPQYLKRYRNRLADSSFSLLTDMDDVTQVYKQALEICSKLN
Chain of MAP3K10 (human) (Q02779 whole entry, looked up): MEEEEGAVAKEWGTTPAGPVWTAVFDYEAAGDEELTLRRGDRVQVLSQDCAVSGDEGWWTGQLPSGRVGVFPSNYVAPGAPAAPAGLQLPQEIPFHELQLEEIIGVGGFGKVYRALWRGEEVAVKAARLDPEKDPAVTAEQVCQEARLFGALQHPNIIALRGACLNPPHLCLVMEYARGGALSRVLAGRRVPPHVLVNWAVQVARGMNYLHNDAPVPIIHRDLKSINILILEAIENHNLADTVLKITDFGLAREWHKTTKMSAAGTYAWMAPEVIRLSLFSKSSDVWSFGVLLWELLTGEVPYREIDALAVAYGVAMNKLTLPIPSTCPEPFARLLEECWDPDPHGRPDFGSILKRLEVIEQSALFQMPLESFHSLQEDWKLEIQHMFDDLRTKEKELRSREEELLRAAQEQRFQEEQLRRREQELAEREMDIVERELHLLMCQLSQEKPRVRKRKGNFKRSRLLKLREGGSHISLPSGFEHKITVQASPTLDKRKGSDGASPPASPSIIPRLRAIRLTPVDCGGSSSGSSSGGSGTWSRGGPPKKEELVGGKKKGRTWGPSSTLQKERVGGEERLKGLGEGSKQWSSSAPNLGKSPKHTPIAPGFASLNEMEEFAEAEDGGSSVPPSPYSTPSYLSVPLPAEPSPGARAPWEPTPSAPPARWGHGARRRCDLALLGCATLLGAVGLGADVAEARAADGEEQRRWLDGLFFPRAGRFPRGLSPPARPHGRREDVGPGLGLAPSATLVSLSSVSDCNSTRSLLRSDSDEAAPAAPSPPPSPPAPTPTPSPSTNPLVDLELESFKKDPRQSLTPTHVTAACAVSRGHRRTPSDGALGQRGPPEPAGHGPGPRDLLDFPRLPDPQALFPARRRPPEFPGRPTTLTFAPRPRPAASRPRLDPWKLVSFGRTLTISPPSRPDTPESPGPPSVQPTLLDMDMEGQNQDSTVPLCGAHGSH
Chain of AKT3 (human) (Q9Y243 whole entry, looked up): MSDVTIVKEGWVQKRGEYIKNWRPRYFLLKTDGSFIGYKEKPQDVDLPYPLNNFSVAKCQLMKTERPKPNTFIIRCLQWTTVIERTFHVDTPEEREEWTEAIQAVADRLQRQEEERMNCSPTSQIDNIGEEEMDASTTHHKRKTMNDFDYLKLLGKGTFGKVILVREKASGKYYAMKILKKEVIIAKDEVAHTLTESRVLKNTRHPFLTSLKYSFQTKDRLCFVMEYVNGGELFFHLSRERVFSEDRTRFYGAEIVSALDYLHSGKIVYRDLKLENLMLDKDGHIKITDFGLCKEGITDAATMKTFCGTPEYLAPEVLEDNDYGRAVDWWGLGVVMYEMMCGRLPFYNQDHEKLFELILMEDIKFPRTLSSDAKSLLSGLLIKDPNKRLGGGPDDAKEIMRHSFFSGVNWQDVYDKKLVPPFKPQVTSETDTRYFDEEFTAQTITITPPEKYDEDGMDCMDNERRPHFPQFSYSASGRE
Chain of CaMK1 (human) (Q14012 whole entry, looked up): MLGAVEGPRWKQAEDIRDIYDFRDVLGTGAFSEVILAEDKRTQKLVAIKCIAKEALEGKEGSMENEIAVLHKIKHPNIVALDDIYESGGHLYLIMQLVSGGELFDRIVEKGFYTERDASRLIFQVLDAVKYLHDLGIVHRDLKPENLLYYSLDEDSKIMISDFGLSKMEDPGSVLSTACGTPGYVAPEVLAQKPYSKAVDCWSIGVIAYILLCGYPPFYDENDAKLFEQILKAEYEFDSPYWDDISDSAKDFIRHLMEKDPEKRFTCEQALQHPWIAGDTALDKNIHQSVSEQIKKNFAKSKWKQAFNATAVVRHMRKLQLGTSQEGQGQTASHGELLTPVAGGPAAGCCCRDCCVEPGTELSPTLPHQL
Chain of PIM1 (human) (P11309 whole entry, looked up): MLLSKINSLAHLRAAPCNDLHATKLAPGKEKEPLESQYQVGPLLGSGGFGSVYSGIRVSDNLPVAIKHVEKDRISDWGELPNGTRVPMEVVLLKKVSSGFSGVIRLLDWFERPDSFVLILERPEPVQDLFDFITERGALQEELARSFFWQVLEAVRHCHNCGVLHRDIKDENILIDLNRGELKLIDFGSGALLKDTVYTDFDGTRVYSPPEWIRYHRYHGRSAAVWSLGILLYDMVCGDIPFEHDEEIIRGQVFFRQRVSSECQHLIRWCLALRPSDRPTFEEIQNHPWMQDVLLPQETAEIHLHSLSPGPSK
Chain of ACVRL1 (human) (P37023 whole entry, looked up): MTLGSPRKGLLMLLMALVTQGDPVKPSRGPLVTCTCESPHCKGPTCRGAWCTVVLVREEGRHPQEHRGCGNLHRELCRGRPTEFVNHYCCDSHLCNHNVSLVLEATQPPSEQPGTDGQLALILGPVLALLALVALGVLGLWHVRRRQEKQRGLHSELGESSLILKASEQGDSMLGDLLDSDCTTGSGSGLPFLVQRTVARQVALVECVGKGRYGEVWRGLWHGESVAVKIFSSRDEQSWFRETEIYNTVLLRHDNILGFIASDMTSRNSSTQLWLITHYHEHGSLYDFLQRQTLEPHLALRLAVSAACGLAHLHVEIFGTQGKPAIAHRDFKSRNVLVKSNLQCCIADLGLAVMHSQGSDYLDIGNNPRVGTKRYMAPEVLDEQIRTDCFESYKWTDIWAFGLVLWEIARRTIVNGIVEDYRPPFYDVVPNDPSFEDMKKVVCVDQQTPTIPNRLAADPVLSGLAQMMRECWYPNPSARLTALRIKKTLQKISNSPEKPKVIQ

Compound | kinase still bound, per cent of control [1] [%] | kinase still bound, per cent of control [2] [%] | kinase still bound, per cent of control [3] [%] | kinase still bound, per cent of control [4] [%] | kinase still bound, per cent of control [5] [%] | kinase still bound, per cent of control [6] [%] | kinase still bound, per cent of control [7] [%] | kinase still bound, per cent of control [8] [%] | kinase still bound, per cent of control [9] [%] | kinase still bound, per cent of control [10] [%] | kinase still bound, per cent of control [11] [%] | kinase still bound, per cent of control [12] [%] | kinase still bound, per cent of control [13] [%] | kinase still bound, per cent of control [14] [%] | kinase still bound, per cent of control [15] [%] | kinase still bound, per cent of control [16] [%] | kinase still bound, per cent of control [17] [%] | kinase still bound, per cent of control [18] [%] | kinase still bound, per cent of control [19] [%] | kinase still bound, per cent of control [20] [%] | also measured
Cc1ccc(NC(=O)c2cccc(C(C)(C)C#N)c2)cc1Nc1ccc2ncn(C)c(=O)c2c1 | 100 | 100 | 100 | 100 | 92 | 100 | 87 | 100 | 85 | 100 | 84 | 3.6 | 99 | 100 | 99 | 100 | 100 | 100 | 100 | 100 | kinase still bound, per cent of control [21]: 100%; kinase still bound, per cent of control [22]: 98%; kinase still bound, per cent of control [23]: 100%; kinase still bound, per cent of control [24]: 100%; kinase still bound, per cent of control [25]: 84%; kinase still bound, per cent of control [26]: 100%; kinase still bound, per cent of control [27]: 100%; kinase still bound, per cent of control [28]: 100%; kinase still bound, per cent of control [29]: 100%; kinase still bound, per cent of control [30]: 100%; kinase still bound, per cent of control [31]: 100%; kinase still bound, per cent of control [32]: 0.55%; kinase still bound, per cent of control [33]: 100%; kinase still bound, per cent of control [34]: 79%; kinase still bound, per cent of control [35]: 100%; kinase still bound, per cent of control [36]: 100%; kinase still bound, per cent of control [37]: 100%; kinase still bound, per cent of control [38]: 15%; kinase still bound, per cent of control [39]: 85%; kinase still bound, per cent of control [40]: 94%
CC[C@@H]1C(=O)N(C)c2cnc(Nc3ccc(C(=O)NC4CCN(C)CC4)cc3OC)nc2N1C1CCCC1 | 100 | 100 | 100 | 100 | 100 | 100 | 100 | 16 | 3.6 | 100 | 100 | 100 | 1.6 | 100 | 100 | 100 | 100 | 100 | 100 | 29 | kinase still bound, per cent of control [21]: 100%; kinase still bound, per cent of control [22]: 3.6%; kinase still bound, per cent of control [23]: 100%; kinase still bound, per cent of control [24]: 100%; kinase still bound, per cent of control [25]: 100%; kinase still bound, per cent of control [26]: 100%; kinase still bound, per cent of control [27]: 100%; kinase still bound, per cent of control [28]: 100%; kinase still bound, per cent of control [29]: 100%; kinase still bound, per cent of control [30]: 100%; kinase still bound, per cent of control [31]: 100%; kinase still bound, per cent of control [32]: 100%; kinase still bound, per cent of control [33]: 100%; kinase still bound, per cent of control [34]: 100%; kinase still bound, per cent of control [35]: 100%; kinase still bound, per cent of control [36]: 100%; kinase still bound, per cent of control [37]: 32%; kinase still bound, per cent of control [38]: 100%; kinase still bound, per cent of control [39]: 100%; kinase still bound, per cent of control [40]: 100%
